Data from the supplement of paper PMC10307832.

Key:
Test in all cases: relative viability (nuclei count vs DMSO), 5 days (fraction); higher = more cells survive
Elesclomol + Pictilisib = compound: CN(NC(=O)CC(=O)NN(C)C(=S)c1ccccc1)C(=S)c1ccccc1 [Elesclomol] + CS(=O)(=O)N1CCN(Cc2cc3nc(-c4cccc5[nH]ncc45)nc(N4CCOCC4)c3s2)CC1 [Pictilisib] (partner 1 µM)
In short: (§1)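 Relative viability is defined as nuclei in treated wells over nuclei in vehicle wells. Duplicate plates were run and medians reported. Lung cancer cell lines in 1536-well plates were dosed by pin tool one day after seeding, with one drug or with a fixed anchor-drug dose plus five library-drug doses (not always all listed) in √10 steps, and nuclei were counted after 5 days.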

Elesclomol + Decitabine = compound: CN(NC(=O)CC(=O)NN(C)C(=S)c1ccccc1)C(=S)c1ccccc1 [Elesclomol] + Nc1ncn([C@H]2C[C@H](O)[C@@H](CO)O2)c(=O)n1 [Decitabine] (partner 2 µM)
In short: as §1

Elesclomol + OSI-027 = compound: CN(NC(=O)CC(=O)NN(C)C(=S)c1ccccc1)C(=S)c1ccccc1 [Elesclomol] + COc1cccc2cc(-c3nc([C@H]4CC[C@H](C(=O)O)CC4)n4ncnc(N)c34)[nH]c12 [OSI-027] (partner 0.5 µM)
In short: as §1

Elesclomol + Navitoclax = compound: CN(NC(=O)CC(=O)NN(C)C(=S)c1ccccc1)C(=S)c1ccccc1 [Elesclomol] + CC1(C)CCC(c2ccc(Cl)cc2)=C(CN2CCN(c3ccc(C(=O)NS(=O)(=O)c4ccc(N[C@H](CCN5CCOCC5)CSc5ccccc5)c(S(=O)(=O)C(F)(F)F)c4)cc3)CC2)C1 [Navitoclax] (partner 0.5 µM)
In short: as §1

Elesclomol = compound: CN(NC(=O)CC(=O)NN(C)C(=S)c1ccccc1)C(=S)c1ccccc1 [Elesclomol]
In short: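 Lung cancer cell lines received five library-drug doses (not always all listed) spaced by √10, pinned on vehicle-anchored 1536-well plates after an overnight stay at 37 °C. Five days later, with no medium change, nuclei were Hoechst-stained, imaged at 4× and counted with MetaXpress. Viability is treated-well nuclei relative to vehicle-well nuclei, as a median across plates. Passing plates had control CV below 25% and at least one doubling.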

Cell Line | relative viability (Elesclomol + Pictilisib; first compound 0.003162 µM) | relative viability (Elesclomol + Pictilisib; first compound 0.01 µM) | relative viability (Elesclomol + Pictilisib; first compound 0.03162 µM) | relative viability (Elesclomol + Pictilisib; first compound 0.1 µM) | relative viability (Elesclomol + Decitabine; first compound 0.003162 µM) | relative viability (Elesclomol + Decitabine; first compound 0.01 µM) | relative viability (Elesclomol + Decitabine; first compound 0.03162 µM) | relative viability (Elesclomol + Decitabine; first compound 0.1 µM) | relative viability (Elesclomol + OSI-027; first compound 0.003162 µM) | relative viability (Elesclomol + OSI-027; first compound 0.01 µM) | relative viability (Elesclomol + OSI-027; first compound 0.03162 µM) | relative viability (Elesclomol + OSI-027; first compound 0.1 µM) | relative viability (Elesclomol + Navitoclax; first compound 0.003162 µM) | relative viability (Elesclomol + Navitoclax; first compound 0.01 µM) | relative viability (Elesclomol + Navitoclax; first compound 0.03162 µM) | relative viability (Elesclomol + Navitoclax; first compound 0.1 µM) | relative viability (Elesclomol; 0.003162 µM) | relative viability (Elesclomol; 0.01 µM) | relative viability (Elesclomol; 0.03162 µM) | relative viability (Elesclomol; 0.1 µM)
NCI-H3122 | 0.567 | 0.594 | 0.594 | 0.304 | 0.415 | 0.455 | 0.397 | 0.0861 | 0.955 | 0.198 | 0.144 | 0.0943 | 1.05 | 1.03 | 1.01 | 0.247 | 0.987 | 1 | 0.957 | 0.349
PC-3 [JPC-3] | 0.738 | 0.604 | 0.878 | 0.581 | 0.877 | 0.656 | 0.487 | 0.524 | 0.734 | 0.662 | 0.781 | 0.428 | 0.866 | 0.682 | 0.794 | 0.7 | 1.06 | 0.892 | 1.04 | 0.665
PC-14 | 0.417 | 0.0984 | 0.05 | 0.0156 | 0.126 | 0.0523 | 0.0385 | 0.0283 | 0.19 | 0.0399 | 0.0104 | 0.0138 | 0.977 | 0.719 | 0.0635 | 0.0562 | 0.923 | 0.261 | 0.0507 | 0.039
RERF-LC-KJ | 0.408 | 0.19 | 0.243 | 0.234 | 0.414 | 0.288 | 0.297 | 0.222 | 0.406 | 0.372 | 0.242 | 0.188 | 0.47 | 0.288 | 0.293 | 0.191 | 0.816 | 0.493 | 0.316 | 0.311
SK-LU-1 | 0.55 | 0.469 | 0.319 | 0.178 | 0.679 | 0.575 | 0.481 | 0.468 | 0.319 | 0.271 | 0.211 | 0.0858 | 1.08 | 0.704 | 0.167 | 0.172 | 1.07 | 0.779 | 0.659 | 0.287
SK-MES-1 | 0.402 | 0.312 | 0.238 | 0.199 | 0.425 | 0.306 | 0.213 | 0.172 | 0.695 | 0.196 | 0.266 | 0.395 | 1.28 | 0.97 | 1.03 | 0.385 | 1.05 | 0.76 | 0.794 | 0.489
SW 1573 | 0.479 | 0.121 | 0.104 | 0.074 | 0.173 | 0.111 | 0.0529 | 0.0067 | 0.167 | 0.107 | 0.0847 | 0.0105 | 0.918 | 0.102 | 0.0652 | 0.0513 | 0.795 | 0.267 | 0.121 | 0.0819
UMC-11 | 0.827 | 0.67 | 0.561 | 0.44 | 0.674 | 0.582 | 0.276 | 0.359 | 0.482 | 0.428 | 0.396 | 0.336 | 0.277 | 0.311 | 0.22 | 0.143 | 1.05 | 0.939 | 0.709 | 0.612
